Results published in patent US20220218614A1, “IONIZABLE CATIONIC LIPIDS AND LIPID NANOPARTICLES, AND METHODS OF SYNTHESIS AND USE THEREOF” (Tidal Therapeutics, Inc., priority 2020, published 2022).
“And” between values parts separate entries of the source, which are not always exact repeats. Identical values can stand only once.

Experiments:
[1] = Quant-iT RiboGreen RNA assay: dye accessible and total (Triton) mRNA content, encapsulation; assay type: physicochemical
Method: RNA content of the nanoparticles is measured using Thermo Fisher Quant-iT RiboGreen RNA Assay Kit. Dye accessible RNA, which includes both non-incorporated RNA and RNA that is near the surface of the nanoparticle, is measured by diluting the nanoparticles to approximately 1 μg/mL mRNA using HEPES buffered saline, and then adding Quant-iT reagent to the mixture. Total RNA content is measured by diluting the particles to 1 μg/mL mRNA using HEPES buffered saline, disrupting the nanoparticles by heating them to 60° C. for 30 minutes in HEPES buffered saline containing 0.5% Triton, and then adding Quant-It reagent. RNA is quantified by measuring fluorescence at 485/535 nm, and concentration is determined relative to a contemporaneously run RNA standard curve.

[2] = Apparent pKa of LNPs by TNS fluorescent probe; assay type: physicochemical; conditions: LNP made with the named ionizable lipid; pH at 50% of maximum TNS fluorescence
From the text: This example describes the fluorescent dye based method used for measurement of the apparent pKa of the lipid nanoparticles. Apparent pKa determines the nanoparticle surface charge under physiological pH conditions, typically a pKa value in the endosomal pH range (6-7.4) results in LNPs that are neutral or slightly charged at plasma or the extracellular space (pH 7.4) and become strongly positive under acidic endosomal environments. This positive surface charge drives fusion of the LNP surface with negatively charged endosomal membranes resulting in destabilization and rupture of the endosomal compartment and LNP escape into the cytosolic compartment, a critical step in cytosolic delivery of mRNA and protein expression via engagement of the cells ribosomal machinery.
The apparent pKa of LNPs made using ionizable Lipids 2, 5 (synthesized as described in example 1), 6 and 7 (synthesized using method analogous to Lipid 2, 5, respectively, except using diethyl amine instead of dimethyl amine to incorporate the tertiary amine head group) were determined by 6-(p-Toluidino)-2-naphthalenesulfonic acid (TNS) fluorescence measurement in aqueous buffers covering a range of pH values (pH 4-pH 10). TNS is non-fluorescent when free in solution, but which fluoresces strongly when associated with a positively charged lipid nanoparticle. At a pH values below the pKa of the nanoparticle, positive LNP surface charge results in dye recruitment at the particle interface resulting in TNS fluorescence. At pH values above the LNP pKa no fluorescence is observed. The apparent pKa of the LNP is reported as the pH at which the fluorescence is at 50% of its maximum, as determined using a four-point logistic curve fit.

[3] = tested on: human T cells in PBMC-engrafted NSG mice; assay: In vivo reprogramming of immune cells with DiI LNP expressing GFP in PBMC-humanized NSG mice; parameters: species or system mouse; conditions: 24 h
Method: The NSG (NOD.Cg-Prkdcscid Il2rgtmlWjl/SzJ) mouse model was purchased from Jax Laboratories. 6-8 weeks old male mice were engrafted with 10 million PBMC of qualified donor in sterile PBS by tail vein injection. Individual body weight was monitored twice a week and blood samples were collected at appropriate interval to evaluate human immune cells engraftment.
50 μl blood was collected by tail vein bleed from each mouse. Red blood cells were lysed using Versalyse, RBC lysis solution following protocol as instructed by manufacturer (Beckman Coulter A09777). Cells were stained with hCD45 & hCD3 to determine the engraftment of human T-cells. After 15 days of PBMC injection, mice had anywhere from 30-60% huCD45+. These humanized mice were evaluated for reprogramming of immune cells by LNPs expressing DiI dye and GFP.
At time zero, mice (n=4 per group) were injected with GFP expressing DiI LNPs (by i. v. at 0.3 mg/kg or 0.1 mg/kg with appropriate buffer. At each time point, 24 or 48h depending on the example mice treated with either LNPs or buffer were sacrificed. Terminal blood and tissues collection was performed to determine DiI and GFP expression in different organs and immune cells as below.
At above specified timepoints, mice were anesthetized with CO2 before sample collection. For blood collection, the chest was opened to expose the heart. […]

[4] = Table 10: Lipid 5 and Lipid 7 LNP, theoretical total mRNA 50 μg/mL

## CCCCC/C=C\C/C=C\CCCCCCCC(=O)OC[C@H](CCN(C)C)OC(=O)CCCCCCC/C=C\C/C=C\CCCCC [Lipid 5]
[1]; Table 10: Lipid 5 and Lipid 7 LNP
  % Dye Accessible mRNA: 23%
[1]; [4]
  Measured total (Triton method) mRNA: 43 µg/mL
  Ribogreen Dye Accessible mRNA: 10 µg/mL
[1]; Table 11A: Lipid 5, Lipid 8 and DLn-MC3-DMA LNP, vortexer mixing, theoretical total mRNA 42.5 ug/mL
  Measured total (Triton method) mRNA: 27 µg/mL
[1]; Table 11A: vortexer mixing, theoretical total mRNA 42.5 ug/mL
  Ribogreen Dye Accessible mRNA: 4 µg/mL
[2]
  apparent pKa of LNP (TNS): 6.9 and ~7
[3]; 0.1 mg/kg, CD3 (hsp34) targeted LNP, DPG-PEG-1.5%
  GFP expression of T cells in blood and lung: about 25%
[3]; 0.3 mg/kg (0.1 mg/kg in Example 30)
  in vivo reprogramming (GFP, DiI) of T cells, in words: superior for reprogramming T cells
